Bridges are numbered along the chain shown (N, C = ends).
How the values were obtained:
Format in all cases: cell-based
[1] = Function blocking score: total percent inhibition over migration, invasion, inflammation and fibrosis assays divided by number of assays; conditions: total percent inhibition for all assays tested divided by number of assays
Method: As documented in the Examples hereinabove, a variety of cyclized peptides were produced that contained the HA-binding domain 1 (HABD1), HA-binding domain 2 (HABD2), or both HABD1 and HABD2. These peptides were evaluated for helicity, direct HA binding and in a number of cell-based bioassays (effects on migration, invasion, NFkB activation, and TGFβ1 production) that are relevant to inflammation and fibrosis. The relationships amongst helicity, HA-binding, and biofunction were evaluated. Peptides were divided into three groups for this analysis: (1) peptides containing HABD1 (“HABD1”); (2) peptides containing HABD2 (“HABD2”); and peptides containing most or all of HABD1 and all of HABD2 (“HABD1+HABD2”). R^2 values were calculated to quantify the relationships between helicity, HA-binding, and biofunction were evaluated.
The results of this analysis for the HABD1 peptides are shown below in Tables 15 and 16. Table 16 provides a function blocking scores for each of the tested peptides and provides R^2 values showing the relationship between HA binding and helicity (“HA binding vs. CD”), HA binding and function-blocking score (“HA binding vs. FBS”) and helicity vs. function-blocking score (“CD vs. FBS”). The same type of summaries are provided for the HABD2 peptides in Tables 17 and 18 below, and for the HABD1+HABD2 peptides in Tables 19 and 20 below.
Function blocking scores were calculated as the total percent inhibition achieved by the peptide for all assays the peptides were tested in, divided by the number of assays. Assays included migration, invasion, inflammation and fibrosis assays. Not all peptides were tested all of the assays. All peptides were included for deriving R^2 values (Pearson's formula).

[2] = tested on: RHAMM-overexpressing (LR21) cells; assay: Cell invasion assay (Boyden chamber with MATRIGEL, Chemicon ECM555); conditions: for Invasion (% inhib.): % inhibition relative to positive control, 10 ng/mL of peptide; for inhibition of cellular invasion (in words): 10 ng/mL peptide, 20 hours, compared to 30% serum control
How it was run: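 Serum-starved RHAMM-overexpressing LR21 cells (7.5×10^4) placed in upper Boyden chamber over MATRIGEL-coated filter, with or without 10 ng/mL peptide; 30% FBS/DMEM chemoattractant below. Invaded cells quantified after 20 h by CyQUANT GR fluorescence (480/520 nm); mean ± SD, n=3, versus 30% serum control.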

[3] = tested on: IMR90 human fetal lung fibroblasts; assay: Fibrosis assay: active TGF-β levels in TGF-β treated fibroblasts (ELISA); conditions: for inhibition of fibrosis (active TGF-β, in words): 10 ng/mL peptide, 48 hours, compared to +TGFβ1 control; for Fibrosis (% inhib.): % inhibition relative to positive control
Method: Compounds 132, 133, 135, 150, 152, 157-161, 265-269, 275, 277, and 278 were evaluated for their ability to inhibit fibrosis. IMR90 human fetal lung fibroblasts were obtained from ATCC and maintained in DMEM supplemented with 10% fetal bovine serum. In order to examine the effect of peptides on myofibroblast differentiation, 80% confluent cultures were serum starved overnight prior to addition of TGF-β (2 ng/mL, R&D Systems). Cells were treated with TGF-β for 24 hours prior to addition of peptides (10 ng/mL). 48 hours after addition of peptides, culture supernatants were collected and levels of active TGF-β measured using commercially available TGF-β ELISA (Quantikine, R&D Systems).
Values are the Mean and SDM n=3 replicates. *p<0.05, **p<0.01, ***p<0.001 when compared to the +TGFβ1 control. In FIG. 47, where bars are labeled with two compound numbers (“133/150” and “135/152”) this means that the data were pooled for the indicated compounds, i.e., for the non-acetylated and acetylated versions of the indicated peptides.

Substance	Function blocking score (FBS) [1]	Invasion (% inhib.) [2]	inhibition of fibrosis (active TGF-β, in words) [3]	Fibrosis (% inhib.) [3]	inhibition of cellular invasion (in words) [2]
Ac-(cyclo-7-11, cyclo-28-32)-NLKQKI[EHVVK]LKDENSQLKSEVSKLR[EQLVK]RKQN-NH2 (Ac-NLKQKIEHVVKLKDENSQLKSEVSKLREQLVKRKQN-NH2; lactam 7-11, 28-32; SMILES CC[C@H](C)[C@H](NC(=O)[C@H](CCCCN)NC(=O)[C@H](CCC(N)=O)NC(=O)[C@H](CCCCN)NC(=O)[C@H](CC(C)C)NC(=O)[C@H](CC(N)=O)NC(C)=O)C(=O)N[C@H]1CCC(=O)NCCCC[C@@H](C(=O)N[C@@H](CC(C)C)C(=O)N[C@@H](CCCCN)C(=O)N[C@@H](CC(=O)O)C(=O)N[C@@H](CCC(=O)O)C(=O)N[C@@H](CC(N)=O)C(=O)N[C@@H](CO)C(=O)N[C@@H](CCC(N)=O)C(=O)N[C@@H](CC(C)C)C(=O)N[C@@H](CCCCN)C(=O)N[C@@H](CO)C(=O)N[C@@H](CCC(=O)O)C(=O)N[C@H](C(=O)N[C@@H](CO)C(=O)N[C@@H](CCCCN)C(=O)N[C@@H](CC(C)C)C(=O)N[C@@H](CCCNC(=N)N)C(=O)N[C@H]2CCC(=O)NCCCC[C@@H](C(=O)N[C@@H](CCCNC(=N)N)C(=O)N[C@@H](CCCCN)C(=O)N[C@@H](CCC(N)=O)C(=O)N[C@@H](CC(N)=O)C(N)=O)NC(=O)[C@H](C(C)C)NC(=O)[C@H](CC(C)C)NC(=O)[C@H](CCC(N)=O)NC2=O)C(C)C)NC(=O)[C@H](C(C)C)NC(=O)[C@H](C(C)C)NC(=O)[C@H](Cc2c[nH]cn2)NC1=O) [Compound 278]	12	0 % inhib.	strong trend towards inhibition of fibrosis	0 % inhib.	–
Ac-(cyclo-10-14, cyclo-15-19)-KIKHVVKLK[EENSK][EKSEK]SKLRSQLVKRK-NH2 (Ac-KIKHVVKLKEENSKEKSEKSKLRSQLVKRK-NH2; lactam 10-14, 15-19; SMILES CC[C@H](C)[C@H](NC(=O)[C@H](CCCCN)NC(C)=O)C(=O)N[C@@H](CCCCN)C(=O)N[C@@H](Cc1c[nH]cn1)C(=O)N[C@H](C(=O)N[C@H](C(=O)N[C@@H](CCCCN)C(=O)N[C@@H](CC(C)C)C(=O)N[C@@H](CCCCN)C(=O)N[C@H]1CCC(=O)NCCCC[C@@H](C(=O)N[C@H]2CCC(=O)NCCCC[C@@H](C(=O)N[C@@H](CO)C(=O)N[C@@H](CCCCN)C(=O)N[C@@H](CC(C)C)C(=O)N[C@@H](CCCNC(=N)N)C(=O)N[C@@H](CO)C(=O)N[C@@H](CCC(N)=O)C(=O)N[C@@H](CC(C)C)C(=O)N[C@H](C(=O)N[C@@H](CCCCN)C(=O)N[C@@H](CCCNC(=N)N)C(=O)N[C@@H](CCCCN)C(N)=O)C(C)C)NC(=O)[C@H](CCC(=O)O)NC(=O)[C@H](CO)NC(=O)[C@H](CCCCN)NC2=O)NC(=O)[C@H](CO)NC(=O)[C@H](CC(N)=O)NC(=O)[C@H](CCC(=O)O)NC1=O)C(C)C)C(C)C) [Compound 266]	28	50 % inhib.	strong trend towards inhibition of fibrosis	24 % inhib.	significantly inhibited cellular invasion
Ac-(cyclo-10-14, cyclo-15-19)-KIKHVVKLK[EENSK][KKSEE]SKLRSQLVKRK-NH2 (Ac-KIKHVVKLKEENSKKKSEESKLRSQLVKRK-NH2; lactam 10-14, 15-19; SMILES CC[C@H](C)[C@H](NC(=O)[C@H](CCCCN)NC(C)=O)C(=O)N[C@@H](CCCCN)C(=O)N[C@@H](Cc1c[nH]cn1)C(=O)N[C@H](C(=O)N[C@H](C(=O)N[C@@H](CCCCN)C(=O)N[C@@H](CC(C)C)C(=O)N[C@@H](CCCCN)C(=O)N[C@H]1CCC(=O)NCCCC[C@@H](C(=O)N[C@H]2CCCCNC(=O)CC[C@@H](C(=O)N[C@@H](CO)C(=O)N[C@@H](CCCCN)C(=O)N[C@@H](CC(C)C)C(=O)N[C@@H](CCCNC(=N)N)C(=O)N[C@@H](CO)C(=O)N[C@@H](CCC(N)=O)C(=O)N[C@@H](CC(C)C)C(=O)N[C@H](C(=O)N[C@@H](CCCCN)C(=O)N[C@@H](CCCNC(=N)N)C(=O)N[C@@H](CCCCN)C(N)=O)C(C)C)NC(=O)[C@H](CCC(=O)O)NC(=O)[C@H](CO)NC(=O)[C@H](CCCCN)NC2=O)NC(=O)[C@H](CO)NC(=O)[C@H](CC(N)=O)NC(=O)[C@H](CCC(=O)O)NC1=O)C(C)C)C(C)C) [Compound 268]	14	50 % inhib.	–	0 % inhib.	significantly inhibited cellular invasion
Ac-(cyclo-10-14, cyclo-15-19)-KIKHVVKLK[KENSE][EKSEK]SKLRSQLVKRK-NH2 [Compound 269]	13	0 % inhib.	–	0 % inhib.	–
Ac-(cyclo-11-15, cyclo-16-20)-KIKHVVKLKD[ENSQK][ESEVK]KLRSQLVKRIK-NH2 [Compound 267]	0	0 % inhib.	–	0 % inhib.	–
Ac-(cyclo-28-32)-NLKQKIKHVVKLKDENSQLKSEVSKLR[EQLVK]RKQN-NH2 (Ac-NLKQKIKHVVKLKDENSQLKSEVSKLREQLVKRKQN-NH2; lactam 28-32; SMILES CC[C@H](C)[C@H](NC(=O)[C@H](CCCCN)NC(=O)[C@H](CCC(N)=O)NC(=O)[C@H](CCCCN)NC(=O)[C@H](CC(C)C)NC(=O)[C@H](CC(N)=O)NC(C)=O)C(=O)N[C@@H](CCCCN)C(=O)N[C@@H](Cc1c[nH]cn1)C(=O)N[C@H](C(=O)N[C@H](C(=O)N[C@@H](CCCCN)C(=O)N[C@@H](CC(C)C)C(=O)N[C@@H](CCCCN)C(=O)N[C@@H](CC(=O)O)C(=O)N[C@@H](CCC(=O)O)C(=O)N[C@@H](CC(N)=O)C(=O)N[C@@H](CO)C(=O)N[C@@H](CCC(N)=O)C(=O)N[C@@H](CC(C)C)C(=O)N[C@@H](CCCCN)C(=O)N[C@@H](CO)C(=O)N[C@@H](CCC(=O)O)C(=O)N[C@H](C(=O)N[C@@H](CO)C(=O)N[C@@H](CCCCN)C(=O)N[C@@H](CC(C)C)C(=O)N[C@@H](CCCNC(=N)N)C(=O)N[C@H]1CCC(=O)NCCCC[C@@H](C(=O)N[C@@H](CCCNC(=N)N)C(=O)N[C@@H](CCCCN)C(=O)N[C@@H](CCC(N)=O)C(=O)N[C@@H](CC(N)=O)C(N)=O)NC(=O)[C@H](C(C)C)NC(=O)[C@H](CC(C)C)NC(=O)[C@H](CCC(N)=O)NC1=O)C(C)C)C(C)C)C(C)C) [Compound 277]	29	0 % inhib.	–	52 % inhib.	–
Ac-KIKHVVKLKDENSQLKSEVSKLRSQLVKRK-NH2 [Compound 265]	28	46 % inhib.	–	0 % inhib.	significantly inhibited cellular invasion
Ac-NLKQKIKHVVKLKDENSQLKSEVSKLRSQLVKRKQN-NH2 [Compound 275]	12	0 % inhib.	–	0 % inhib.	–
Ac-VSKLRSQLVKRKQN-NH2 [Compound 132]	17	66 % inhib.	–	0 % inhib.	significantly inhibited cellular invasion

Source: patent US10562935B2, “Stapled peptides and uses thereof” (London Health Sciences Centre Research Inc., priority 2015, dated 2020)
